Source: patent EP2695874A1, “Myrtucommulone analogues” (Universität des Saarlandes, priority 2012, dated 2014)

Experiments:
mPGES-1 = target: T1, mPGES-1 (Homo sapiens, UniProt O14684); test: Determination of PGE2 synthase activity in microsomes of A549 cells; type: biochemical; conditions: PGH2 substrate, 15 min preincubation at 4°C, read-out: mPGES-1 (IC50 in µmol l^-1)
T1 construct: Determination of PGE2 synthase activity in microsomes of A549 cells; endogenous in cells; host or cells: A549 cells (microsomal membranes)
T1 sequence (O14684 1-152): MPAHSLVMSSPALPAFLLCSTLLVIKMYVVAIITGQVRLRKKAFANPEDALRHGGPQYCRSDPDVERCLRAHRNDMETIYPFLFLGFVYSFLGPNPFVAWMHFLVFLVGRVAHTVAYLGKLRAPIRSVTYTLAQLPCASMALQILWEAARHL
Description: Example 9 - Determination of PGE2 synthase activity in microsomes of A549 cells
(A. Koeberle, F. Pollastro, H. Northoff and O. Werz, Br. J. Pharmacol. 2009, 156, 952-961.)
Microsomal membranes were diluted in potassium phosphate buffer (0.1 mol·1^-1, pH 7.4) containing 2.5 mmol·l^-1 glutathione.
Test compounds or vehicle were added, and after 15 min at 4°C the reaction ([…]) was initiated by addition of PGH2 ([…], final concentration). After 1 min at 4°C, the reaction was terminated by using stop solution (100 ml; 40 mmol·l^-1 FeCl2, 80 mmol·l^-1 citric acid and 10 mmol·l^-1 of 11b-PGE2). PGE2 was separated by solid phase extraction on reversed phase (RP)-C18 material by using acetonitrile (200 ml) as eluent, and analysed by RP-HPLC (30% acetonitrile in water + 0.007% TFA (v,v), Nova-Pak® C18 column, 5 x 100 mm, 4 mm particle size, flow rate 1 m-·min^-1) with UV detection at 195 nm. 11b-PGE2 was used as internal standard to quantify PGE2 product formation by integration of the area under the peaks.

5-LO [1] = target: T2, 5-LO (Homo sapiens, UniProt P09917); test: 5-LO product formation of purified 5-LO enzyme (cell-free assay); type: biochemical; conditions: 10 µM AA, 2 mM CaCl2, read-out: 5-LO cell-free assay (IC50 in µmol l^-1)
T2 sequence (P09917 1-674): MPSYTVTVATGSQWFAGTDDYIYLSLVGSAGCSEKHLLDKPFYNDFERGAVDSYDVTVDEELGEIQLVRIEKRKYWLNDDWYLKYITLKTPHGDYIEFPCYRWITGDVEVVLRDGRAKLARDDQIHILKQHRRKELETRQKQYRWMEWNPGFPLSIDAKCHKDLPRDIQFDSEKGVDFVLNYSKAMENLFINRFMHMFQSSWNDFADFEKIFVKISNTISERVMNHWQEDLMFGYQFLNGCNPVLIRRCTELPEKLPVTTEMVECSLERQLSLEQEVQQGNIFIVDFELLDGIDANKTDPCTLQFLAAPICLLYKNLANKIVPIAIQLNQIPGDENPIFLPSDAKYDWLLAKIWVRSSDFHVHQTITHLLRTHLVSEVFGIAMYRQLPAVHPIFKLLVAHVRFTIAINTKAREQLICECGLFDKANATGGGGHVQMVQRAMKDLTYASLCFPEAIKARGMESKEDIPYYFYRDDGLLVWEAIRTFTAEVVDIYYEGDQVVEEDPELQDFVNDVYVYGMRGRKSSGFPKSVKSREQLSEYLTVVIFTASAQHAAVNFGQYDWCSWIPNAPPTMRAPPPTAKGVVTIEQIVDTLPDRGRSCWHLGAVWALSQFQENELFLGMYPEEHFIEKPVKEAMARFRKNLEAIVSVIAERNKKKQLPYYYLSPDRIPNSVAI
Description: (§1) To assay 5- and 15-lipoxygease (LO) product formation in intact cells, 7.5 x 10^6 freshly isolated PMNLs were finally resuspended in 1 ml of PGC buffer. After preincubation with the test compounds for 10 min at 37°C, the reaction was started by the addition of 1 µM ionomycin plus 20 µM AA. After 10 min at 37°C, the reaction was stopped with 1 ml of methanol and 30 µl of 1 N HCl, and 200 ng of prostaglandin B1 and 500 µl of PBS were added. Formed AA metabolites were extracted and analyzed by HPLC. To determine product formation of purified 5-LO enzyme, 5-LO protein (0.1 µg in 10 µl) was added to 990 µl of PBS containing 1 mM EDTA and 1 mM ATP on ice and the indicated compounds were added. After 5 to 10 min on ice, the samples were preincubated for 30 s at 37°C and CaCl2 and AA (2 mM and 10 µM, respectively) were added to start the 5-LO reaction. After 10 min, the incubation was terminated and 5-LO product formation was determined as described for the intact cells.

5-LO [2] = target: T2, 5-LO; test: 5-LO product formation in intact PMNLs (cell-based assay); conditions: 1 µM ionomycin plus 20 µM AA, read-out: 5-LO cell-based assay (IC50 in µmol l^-1)
Description: as §1

Cell lines = test: Determination of cell viability by MTT assay (apoptose induction); type: cell-based; conditions: cell line not given, read-out: Apoptose induction (EC50 in µmol l^-1)
Description: Example 11 - Determination of cell viability by MTT assay
(I. Tretiakova, D. Blaesius, L. Maxia, S. Wesselborg, K. Schulze-Osthoff, J CinatlJr., M. Michaelis, O. Werz, Apoptosis 2008, 13, 119-131.)
Cell viability was assessed using the MTT assay. Cell lines were incubated at 37°C and 5% CO2 atmosphere with the indicated additives for 5 days. PBMC were treated for 40 h and in some experiments, MM6 cells were only treated for 24 h. DMSO was used as solvent never exceeding 0.5% (vol/vol). Then, MTT reagent was added for 4 h. Thereafter, 100 II SDS solution (20% SDS in a 1:1 (vol by vol) dimethylformamide/ water solution) was added for 4 h. Plates were read on a multiwell scanning spectrophotometer (Victor3 plate reader, PerkinElmer, Rodgau-Juegesheim, Germany) at a wavelength of 620 nm and a reference wavelength of 690 nm. Induction of cell death was determined as the relative reduction of the optical density.

Structure (SMILES)	IC50 (mPGES-1) [nM]	IC50 (5-LO [1]) [nM]	IC50 (5-LO [2]) [nM]	EC50 (Cell lines) [nM]
CC(C)C(C1=C(O)c2ccccc2C1=O)c1c(O)c(C(=O)c2ccccc2)c(O)c(C(C2=C(O)c3ccccc3C2=O)C(C)C)c1O (centres unmarked) [Compound (Id), 2,2'-(1,1'-(5-Benzoyl-2,4,6-trihydroxy-1,3-phenylene)bis(2-methylpropane-1,1-diyl))bis(3-hydroxy-1H-inden-1-one)]	680	6860	3230	> 30000
CC(C)C(=O)c1c(O)c(C(C2=C(O)c3ccccc3C2=O)C(C)C)c(O)c(C(C2=C(O)c3ccccc3C2=O)C(C)C)c1O (centres unmarked) [Compound (Ia), 2,2'-(1,1'-(2,4,6-Trihydroxy-5-isobutyryl-1,3-phenylene)bis(2-methylpropane-1,1-diyl))bis(3-hydroxy-1H-inden-1-one)]	300	2800	6700	> 30000
O=C1C(C(c2ccccc2)c2c(O)c(C(=O)c3ccccc3)c(O)c(C(C3=C(O)c4ccccc4C3=O)c3ccccc3)c2O)=C(O)c2ccccc21 (racemic) [(Ih), 2,2'-(5-Benzoyl-2,4,6-trihydroxy-1,3-phenylene)bis(phenylmethylene)bis(3-hydroxy-1H-inden-1-one)]	330	2990	840	> 30000
CC(C)CC(=O)c1c(O)c(C(C2=C(O)c3ccccc3C2=O)c2ccccc2)c(O)c(C(C2=C(O)c3ccccc3C2=O)c2ccccc2)c1O (racemic) [(If), 2,2'-(2,4,6-Trihydroxy-5-(3-methylbutanoyl)-1,3-phenylene)bis(phenylmethylene)bis(3-hydroxy-1H-inden-1-one)]	190	460	690	> 30000
CC(C)C(=O)c1c(O)c(C(C2=C(O)c3ccccc3C2=O)c2ccccc2)c(O)c(C(C2=C(O)c3ccccc3C2=O)c2ccccc2)c1O (racemic) [Compound (Ie), 2,2'-(2,4,6-Trihydroxy-5-isobutyryl-1,3-phenylene)bis(phenylmethylene)bis(3-hydroxy-1H-inden-1-one)]	550	730	620	> 30000
CC(C)CC(=O)c1c(O)c(C(C2=C(O)c3ccccc3C2=O)C(C)C)c(O)c(C(C2=C(O)c3ccccc3C2=O)C(C)C)c1O (centres unmarked) [Compound (Ic), 2,2'-(1,1'-(2,4,6-Trihydroxy-5-(3-methylbutanoyl)-1,3-phenylene)bis(2-methylpropane-1,1-diyl))bis(3-hydroxy-1H-inden-1-one)]	180	300	1040	> 30000
CCCCCC(=O)c1c(O)c(C(C2=C(O)c3ccccc3C2=O)c2ccccc2)c(O)c(C(C2=C(O)c3ccccc3C2=O)c2ccccc2)c1O (racemic) [Compound (Ig), 2,2'-(5-Hexanoyl-2,4,6-trihydroxy-1,3-phenylene)bis(phenylmethylene)bis(3-hydroxy-1H-inden-1-one)]	390	1100	2090	> 30000
CCCCCC(=O)c1c(O)c(C(C2=C(O)c3ccccc3C2=O)C(C)C)c(O)c(C(C2=C(O)c3ccccc3C2=O)C(C)C)c1O (centres unmarked) [Compound (Ib), 2,2'-(1,1'-(5-Hexanoyl-2,4,6-trihydroxy-1,3-phenylene)bis(2-methylpropane-1,1-diyl))bis(3-hydroxy-1H-inden-1-one)]	80	1740	1460	> 30000
